Columns and labels:
[1] = target: C. necator R form-specific enoyl-CoA hydratase PhaJ2 (phaJ2 gene, H16_B0397, SEQ ID NO: 3), wild type, recombinant N-terminal His tag (Cupriavidus necator, UniProt Q0K478); assay: enoyl-CoA hydratase activity, absorbance decrease at 263 nm, Lineweaver-Burk analysis; assay type: biochemical, Cupriavidus necator H16; conditions: 100 mM Tris-HCl buffer (pH 7.8)
Text: (§1) By homology search with a known R form-specific enoyl CoA hydratase, phaJ1 (SEQ ID NO: 2), phaJ2 (SEQ ID NO: 3), and phaJ3 were identified as a presumptive R form-specific enoyl CoA hydratase gene. Then, using the genomic DNA of C. necator as the template, phaJ1 was amplified by a PCR method with the oligonucleotides of the following sequence 19 and sequence 20 as the primers. Similarly, phaJ2 was amplified by a PCR method with the oligonucleotides of sequence 21 and sequence 22 as the primers. Furthermore, phaJ3 was amplified by a PCR method with the oligonucleotides of sequence 23 and sequence 24 as the primers. Using the KOD Plus (manufactured by TOYOBO) for PCR, a cycle comprising 20 seconds at 98° C., 15 seconds at 61° C. and 2 minutes at 68° C. was repeated for 30 cycles.
(§2) Each fragment of phaJ1, phaJ2 and phaJ3 that were amplified and cleaved with NdeI and XhoI in Example 16 was inserted into an expression plasmid pCOLDII (manufactured by Takara-Bio) cleaved with each of NdeI and XhoI. The plasmids obtained were designated as pCOLD-J1, pCOLD-J2 and pCOLD-J3. These expression plasmids have been constructed so as to produce recombinant protein in which a tag sequence (hereinafter referred to as His tag) comprising 6 histidine residues has been added to the amino terminal end. Using pCOLD-J1, pCOLD-J2 and pCOLD-J3, E. coli strain BL21 (DE3) (manufactured by Novagen) was transformed. Each transformant obtained was cultured in 100 mL of LB medium with 100 mg ampicillin at 37° C. for 4 hours, to which isopropyl-thiogalacto-pyranoside (IPTG) was added at a final concentration of 0.5 mM to induce expression, and further culcuted at 15° C. for 24 hours. The cells collected by centrifugation were resuspended in 20 mM sodium phosphate buffer (pH 7.4) containing 30 mM imidazole and 500 mM NaCl, sonic-disrupted and centrifuged to obtain soluble protein fractions.
(§3) This soluble protein fraction was filtered with a filter having a pore size of 0.22 μm. Then, this was subjected to the HisTrap FF crude column (1 ml) (manufactured by GE Healthcare) equalized in advance with 20 mM sodium phosphate buffer (pH 7.4) containing 30 mM imidazole and 500 mM NaCl so as to allow the His tag-carrying protein to be adsorbed. Subsequently, by linearly increasing the imidazole concentration from 30 mM to 500 mM, the adsorbed protein was eluted and recovered to prepare purified enzyme.
(§4) Proteins expressed from the three genes, phaJ1, phaJ2 and phaJ3, derived from C. necator are hereinafter referred to as PhaJ1, PhaJ2 and PhaJ3, respectively. For each of purified recombinant protein products produced in E. coli, the activity of enoyl-CoA hydratase when crotonyl-CoA (4 carbons), 2-hexenoyl-CoA (6 carbons) or 2-octenoyl-CoA (8 carbons) was used as the substrate was determined according to the method described in Non-patent document 4. Thus, the purified enzyme was added to 100 mM Tris-HCl buffer (pH 7.8) containing the substrate (a total volume of 400 μl), and reduction in absorbance at 263 nm was measured with a spectrophotometer. At this time, the measured values obtained by varying the substrate concentration were analyzed by the Lineweaver-Burk plot to calculate the Michaelis constant Km, and the maximum velocity Vmax.

[2] = test system: C. necator R form-specific enoyl-CoA hydratase PhaJ3 (phaJ3 gene), wild type, recombinant N-terminal His tag; assay: as above; assay type: biochemical, Cupriavidus necator H16; conditions: 100 mM Tris-HCl buffer (pH 7.8); for Km: read-out: Michaelis constant Km
Text: as §1, §2, §3, §4

[3] = target: T1, C. necator R form-specific enoyl-CoA hydratase PhaJ1 (phaJ1 gene, H16_A1070, SEQ ID NO: 2), wild type, recombinant N-terminal His tag (Cupriavidus necator, UniProt Q0KCR0); assay: as above; assay type: biochemical, Cupriavidus necator H16; conditions: 100 mM Tris-HCl buffer (pH 7.8)
T1 sequence (Q0KCR0 1-158): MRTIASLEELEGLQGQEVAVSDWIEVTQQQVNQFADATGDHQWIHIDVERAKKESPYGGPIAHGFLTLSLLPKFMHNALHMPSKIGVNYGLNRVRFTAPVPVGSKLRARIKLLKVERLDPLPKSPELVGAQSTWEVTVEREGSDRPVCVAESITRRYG
Text: as §1, §2, §3, §4

[4] = substrate: C/C=C/C(=O)SCCNC(=O)CCNC(=O)[C@H](O)C(C)(C)COP(=O)(O)OP(=O)(O)OC[C@H]1O[C@@H](n2cnc3c(N)ncnc32)[C@H](O)[C@@H]1OP(=O)(O)O; assay: as above; assay type: biochemical, Cupriavidus necator H16
Text: as §1, §2, §3, §4

[5] = substrate: CCC/C=C/C(=O)SCCNC(=O)CCNC(=O)[C@H](O)C(C)(C)COP(=O)(O)OP(=O)(O)OC[C@H]1O[C@@H](n2cnc3c(N)ncnc32)[C@H](O)[C@@H]1OP(=O)(O)O; assay: as above; assay type: biochemical, Cupriavidus necator H16
Text: as §1, §2, §3, §4

[6] = substrate: CCCCC/C=C/C(=O)SCCNC(=O)CCNC(=O)[C@H](O)C(C)(C)COP(=O)(O)OP(=O)(O)OC[C@H]1O[C@@H](n2cnc3c(N)ncnc32)[C@H](O)[C@@H]1OP(=O)(O)O; assay: as above; assay type: biochemical, Cupriavidus necator H16
Text: as §1, §2, §3, §4

[7] = stereoselectivity of the hydration reaction, coupled with PHA granule-mediated polymerization and DTNB; assay type: biochemical; conditions: for absorbance at 412 nm: 0.2 mM crotonyl-CoA, 1 mM DTNB, 5 μl PHA granule fraction, 100 mM Tris-HCl pH 7.8, FIG. 4; for stereoselectivity of the hydration reaction: concluded from the CoA-SH release with PHA granule fraction and DTNB
Text: FIG. 4 The result of investigating the stereoselectivity of PhaJ1, PhaJ2 and PhaJ3 by the conjugation of the enoyl-CoA hydratase-mediated hydration reaction and the PHA granules-mediated polymerization reaction. (A) PhaJ1, (B) PhaJ2, and (C) PhaJ3; dark square: purified enzyme added, open triangle: no purified enzyme added.
In the above measurement of enoyl-CoA hydratase activity, no findings can be obtained on stereoselectivity at the addition of water to the double bond. Thus, the stereoselectivity of the hydration reaction by PhaJ1, PhaJ2 and PhaJ3 was investigated as follows. From the cells of C. necator that accumulated PHA, a water-insoluble PHA granule fraction can be prepared, but PHA synthetic synthase is bound to the surface of the PHA granules. This PHA synthase specifically polymerizes (R)-3-hydroxyacyl-CoA and releases CoA-SH. Thus, when both of the PHA granule fraction and 5,5′-dithiobis(2-nitrobenzoic acid) (DTNB) are present in the reaction solution for determining enoyl-CoA hydratase activity, COA-SH released together with the polymerization by PHA synthase reacts with DTNB to produce a yellow dye having a specific absorption at 412 nm, if the specificity of enoyl-CoA hydratase is (R)-form-specific. Conversely, when enoyl-CoA hydratase is (S)-form-specific, no yellow dye is produced.
Measurement was carried out according to the method described in Non-patent document 4. Thus, the PHA granule fraction was prepared from the cells of the C. necator wild type strain (the H16 strain) cultured for 36 hours in 100 ml of a medium containing fructose as a carbon source in a method described in Example 18. The cells were collected by centrifugation from the culture, and suspended in 3 ml of 50 mM Tris-HCl buffer (pH 7.5) followed by sonic-disruption. The supernatant obtained by low-speed centrifugation of the disruption liquid at 1,500×g, 5 min was further subjected to high-speed centrifugation at 15,000×g, 15 min. And the precipitate fraction was suspended in 3 ml of 50 mM Tris-HCl buffer (pH 7.5) to prepare a PHA granule fraction. Then, the purified enzyme was added to 100 mM Tris-HCl buffer (pH 7.8) containing 0.2 mM crotonyl-CoA, 1 mM DTNB and 5 μl PHA granule fraction (a total volume of 400 μl), and an increase in absorbance at 412 nm was measured.

[8] = other: PhaJ1, 100 mM Tris-HCl buffer (pH 7.8)
[9] = other: PhaJ2, 100 mM Tris-HCl buffer (pH 7.8)

## C/C=C/C(=O)SCCNC(=O)CCNC(=O)[C@H](O)C(C)(C)COP(=O)(O)OP(=O)(O)OC[C@H]1O[C@@H](n2cnc3c(N)ncnc32)[C@H](O)[C@@H]1OP(=O)(O)O [Crotonyl-CoA (C4), crotonyl-CoA]
[1]
  Maximum velocity Vmax: 1.4 ± 0.1 × 10^2 U mg^−1
[2]
  Maximum velocity Vmax: 1.3 ± 0.2 × 10^1 U mg^−1
  Km: 178 ± 46 µM

## CCC/C=C/C(=O)SCCNC(=O)CCNC(=O)[C@H](O)C(C)(C)COP(=O)(O)OP(=O)(O)OC[C@H]1O[C@@H](n2cnc3c(N)ncnc32)[C@H](O)[C@@H]1OP(=O)(O)O [2-hexenoyl-CoA (C6), 2-hexenoyl-CoA]
[3]
  Maximum velocity Vmax: 7.0 ± 0.5 × 10^2 U mg^−1
[1]
  Maximum velocity Vmax: 2.4 ± 0.3 × 10^3 U mg^−1
[2]
  Maximum velocity Vmax: 1.1 ± 0.1 × 10^2 U mg^−1
  Km: 110 ± 16 µM

## CCCCC/C=C/C(=O)SCCNC(=O)CCNC(=O)[C@H](O)C(C)(C)COP(=O)(O)OP(=O)(O)OC[C@H]1O[C@@H](n2cnc3c(N)ncnc32)[C@H](O)[C@@H]1OP(=O)(O)O [2-oxtenoyl-CoA (C8), 2-octenoyl-CoA]
[3]
  Maximum velocity Vmax: 6.7 ± 0.7 × 10^2 U mg^−1
[1]
  Maximum velocity Vmax: 2.0 ± 0.1 × 10^3 U mg^−1
[2]
  Maximum velocity Vmax: 2.8 ± 0.5 × 10^2 U mg^−1
  Km: 38 ± 12 µM

B1: C. necator R form-specific enoyl-CoA hydratase PhaJ1 (phaJ1 gene, H16_A1070, SEQ ID NO: 2), wild type, recombinant N-terminal His tag (Cupriavidus necator H16) (protein)
chain: T1 sequence (Q0KCR0 1-158)
[4]; [8]
  Km: 91 ± 5 µM
[5]; [8]
  Km: 41 ± 7 µM
[6]; [8]
  Km: 24 ± 5 µM

B2: PhaJ1: purified His-tagged recombinant protein expressed in E. coli from phaJ1 (SEQ ID NO: 2) of C. necator; (R)-form-specific enoyl-CoA hydratase (protein)
chain: T1 sequence (Q0KCR0 1-158)
modifications: His tag; Cupriavidus necator; Cupriavidus necator strain H16 (R)-form- specific enoyl-CoA hydratase (R-hydratase, phaJ1), H16_A1070
[7]
  absorbance at 412 nm: increase
  stereoselectivity of the hydration reaction: (R)-form-specific

B3: C. necator R form-specific enoyl-CoA hydratase PhaJ2 (phaJ2 gene, H16_B0397, SEQ ID NO: 3), wild type, recombinant N-terminal His tag (Cupriavidus necator H16) (protein)
chain: MKTYENIADLQPLVGEVIGTSEWLALDQARINTFADATGDHQWIHVDVERAKNGPFGAPIAHGFLTLSLLPAFTHSAYRIRNSSTGVNYGLDKVRFPAPVPVDSLLRAQFKLMSYEALENGGAQFKVEMMVERQGGSKPVCIAESILRRFP
[4]; [9]
  Km: 311 ± 15 µM
[5]; [9]
  Km: 77 ± 14 µM
[6]; [9]
  Km: 23 ± 4 µM

B4: PhaJ2: purified His-tagged recombinant protein expressed in E. coli from phaJ2 (SEQ ID NO: 3) of C. necator; (R)-form-specific enoyl-CoA hydratase (protein)
chain: B3 chain
modifications: His tag; Cupriavidus necator R-hydratase gene (phaJ2); Cupriavidus necator strain H16 (R)-form- specific enoyl-CoA hydratase (R-hydratase, phaJ2), H16_B0397
[7]
  absorbance at 412 nm: increase
  stereoselectivity of the hydration reaction: (R)-form-specific

From patent US20130071892A1, “PROCESS FOR PRODUCTION OF POLYHYDROXYALKANOIC ACID USING GENETICALLY MODIFIED MICROORGANISM HAVING ENOYL-CoA HYDRATASE GENE INTRODUCED THEREIN” (TOKYO INSTITUTE OF TECHNOLOGY, priority 2010, published 2013)
